Where a SMILES comes first, the peptide text is derived from it. [ ]: non-standard residue; d: D form. The star is where a group is joined. X1 = CC(=O)N[C@@H]1[C@@H](O[C@@H]2O[C@H](CO)[C@H](O)[C@H](O)[C@H]2O)[C@@H](O)[C@@H](CO[C@@H]2O[C@H](CO)[C@@H](O[C@@H]3O[C@H](CO)[C@H](O)[C@H](O[C@]4(C(=O)O)C[C@H](O)[C@@H](NC(C)=O)[C@H]([C@H](O)[C@H](O)CO)O4)[C@H]3O)[C@H](O[C@@H]3O[C@@H](C)[C@@H](O)[C@@H](O)[C@@H]3O)[C@H]2NC(C)=O)O[C@@H]1*; sY = N[C@@H](Cc1ccc(OS(=O)(=O)O)cc1)C(=O)O
Details: mouse, in vivo
Protocol: Microscopic observations were made using an upright microscope (NIKON ECLIPSE E600-FN, Nikon UK Ltd, UK) equipped with a water immersion objective (40×/0.80 W). Images were recorded using a CCD camera (DAGE MTI DC-330, DAGE MTI Inc, Michigan City, Ind.) onto sVHS video-cassettes. Venules (20-40 μM diameter) were selected and typically observed for the entire experimental period. Centre-line blood flow velocity (VCL) in was measured in vessels of interest using a commercially available velocimeter (CIRCUSOFT, Hockessin, Del.). Vessels with VCL between 1 and 5 mm/s were selected for these studies.
Control leukocyte rolling was recorded exactly 30 min after exposure of the cremaster muscle for intravital microscopy since leukocyte rolling at this time is almost exclusively P-selectin-dependent . GSPs were injected at 31 min and their effects monitored for 10 min. […] Blood flow velocities and circulating leukocyte concentrations were measured at key times (before and after treatments) during experiments.

Systemic leukocyte counts following treatment: increased slightly
SMILES: CC(=O)N[C@H]1[C@H](OC[C@H]2O[C@H](O[C@H](C)[C@H](NC(=O)[C@H](CCC(=O)O)NC(=O)[C@@H]3CCCN3C(=O)[C@H](CC(C)C)NC(=O)[C@H](Cc3ccccc3)NC(=O)[C@H](CC(=O)O)NC(=O)[C@H](Cc3ccc(OS(=O)(=O)O)cc3)NC(=O)[C@H](CC(=O)O)NC(=O)[C@H](CC(C)C)NC(=O)[C@H](Cc3ccc(OS(=O)(=O)O)cc3)NC(=O)[C@H](CCC(=O)O)NC(=O)[C@H](Cc3ccc(OS(=O)(=O)O)cc3)NC(=O)[C@@H](N)CCC(=O)O)C(=O)N[C@@H](CCC(=O)O)C(=O)N3CCC[C@H]3C(=O)N3CCC[C@H]3C(=O)N[C@@H](CCC(=O)O)C(=O)N[C@@H](CS)C(=O)O)[C@H](NC(C)=O)[C@@H](O[C@@H]3O[C@H](CO)[C@H](O)[C@H](O)[C@H]3O)[C@H]2O)O[C@H](CO)[C@@H](O[C@@H]2O[C@H](CO)[C@H](O)[C@H](O[C@]3(C(=O)O)C[C@H](O)[C@@H](NC(C)=O)[C@H]([C@H](O)[C@H](O)CO)O3)[C@H]2O)[C@@H]1O[C@@H]1O[C@@H](C)[C@@H](O)[C@@H](O)[C@@H]1O [2-GSP-6] (H-E[sY]E[sY]LD[sY]DFLPET(X1)EPPEC-OH)
